Here are results for 1 compound from article PMC12041661, “Dual MNK/VEGFR2 Inhibitor JDB153 Enhances Immunotherapeutic Efficiency and Chemosensitivity in Lung Cancer” (MedComm, 2025).

For one assay, the target named is T1, VEGFR2 (Homo sapiens, UniProt P35968).
T1 construct: gene KDR
Put plainly: radiometric kinase assay. It counts as biochemical.

In a further assay the target is T2, MNK1 (Homo sapiens, UniProt Q9BUB5).
T2 construct: gene MKNK1
The experiment in a line: radiometric kinase assay. It is filed as biochemical.

pIC50: −log10 of the molar value.

T2 sequence (Q9BUB5 whole entry): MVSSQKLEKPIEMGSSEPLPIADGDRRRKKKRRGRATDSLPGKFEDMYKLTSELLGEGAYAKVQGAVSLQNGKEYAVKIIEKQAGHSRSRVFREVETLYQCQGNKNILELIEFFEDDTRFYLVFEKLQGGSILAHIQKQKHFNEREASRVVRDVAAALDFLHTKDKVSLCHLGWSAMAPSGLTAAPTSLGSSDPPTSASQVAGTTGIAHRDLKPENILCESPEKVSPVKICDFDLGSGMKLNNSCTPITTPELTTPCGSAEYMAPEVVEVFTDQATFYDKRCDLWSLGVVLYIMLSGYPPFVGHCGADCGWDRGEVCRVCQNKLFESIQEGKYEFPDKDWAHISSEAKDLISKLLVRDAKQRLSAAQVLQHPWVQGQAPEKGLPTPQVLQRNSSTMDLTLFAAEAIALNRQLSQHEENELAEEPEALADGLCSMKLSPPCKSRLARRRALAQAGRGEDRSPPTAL
T1 sequence (P35968 20-1356): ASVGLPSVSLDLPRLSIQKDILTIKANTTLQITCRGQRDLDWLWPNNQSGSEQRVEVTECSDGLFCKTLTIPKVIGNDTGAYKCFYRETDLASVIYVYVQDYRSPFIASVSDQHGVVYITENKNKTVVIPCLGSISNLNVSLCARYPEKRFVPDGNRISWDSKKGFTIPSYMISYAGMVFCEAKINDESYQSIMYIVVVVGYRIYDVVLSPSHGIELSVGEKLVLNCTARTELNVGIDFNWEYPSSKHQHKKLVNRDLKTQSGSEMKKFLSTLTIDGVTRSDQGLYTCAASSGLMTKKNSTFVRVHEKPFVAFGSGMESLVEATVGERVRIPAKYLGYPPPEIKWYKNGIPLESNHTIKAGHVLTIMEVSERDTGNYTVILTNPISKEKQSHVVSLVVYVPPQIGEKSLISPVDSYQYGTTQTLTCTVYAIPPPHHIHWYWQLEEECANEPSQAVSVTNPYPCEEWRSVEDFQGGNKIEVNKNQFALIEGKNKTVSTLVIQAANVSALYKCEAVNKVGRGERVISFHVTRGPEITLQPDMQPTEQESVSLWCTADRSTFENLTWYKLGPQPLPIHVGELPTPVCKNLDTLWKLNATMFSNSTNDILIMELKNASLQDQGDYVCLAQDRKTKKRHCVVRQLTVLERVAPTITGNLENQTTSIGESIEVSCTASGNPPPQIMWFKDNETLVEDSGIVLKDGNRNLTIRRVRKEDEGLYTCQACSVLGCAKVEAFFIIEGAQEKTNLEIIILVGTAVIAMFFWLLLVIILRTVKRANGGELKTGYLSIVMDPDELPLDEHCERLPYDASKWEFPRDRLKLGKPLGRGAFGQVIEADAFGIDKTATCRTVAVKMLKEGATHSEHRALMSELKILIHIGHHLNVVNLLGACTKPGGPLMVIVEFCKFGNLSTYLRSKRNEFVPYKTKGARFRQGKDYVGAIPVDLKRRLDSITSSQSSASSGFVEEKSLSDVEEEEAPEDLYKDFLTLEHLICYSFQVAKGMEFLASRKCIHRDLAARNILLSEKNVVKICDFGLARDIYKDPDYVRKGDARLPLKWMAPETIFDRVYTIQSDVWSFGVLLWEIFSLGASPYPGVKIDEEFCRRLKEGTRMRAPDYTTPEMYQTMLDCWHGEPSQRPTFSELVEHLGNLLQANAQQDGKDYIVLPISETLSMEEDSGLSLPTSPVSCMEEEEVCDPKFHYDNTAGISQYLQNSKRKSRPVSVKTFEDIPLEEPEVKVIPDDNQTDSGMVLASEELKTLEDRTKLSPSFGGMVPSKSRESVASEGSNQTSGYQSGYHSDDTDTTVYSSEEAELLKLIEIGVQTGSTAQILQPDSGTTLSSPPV

Consider `Cc1cc(Nc2ncnn3cc(OCCN4CCC(F)(F)C4)c(C)c23)c(=O)n2c1C(=O)NC21CCCC1` [JDB153], for which the pIC50 was 8.52 against VEGFR2 and 7.58 against MNK1.
